The text below walks through data of patent US6159932A, “Endoparasiticidal compositions” (Bayer Aktiengesellschaft, priority 1995, dated 2000).

Experiment [1] deals with Nematospiroides dubius. As to the kind of experiment: In vivo nematode test, Nematospiroides dubius in the mouse. To be noted: oral. How it is done:
Nematospiroides dubius in the Mouse
Mice are infected experimentally with nematodes of the species Nematospiroides dubius. For infection, the mice are administered orally with Nematospiroides dubius as 60 filariform larvae.
After the prepatency period has expired, the suspended active substances are administered orally on day 12 after infection.
(§1) Determination of the Activity
The mice are selected on day 20 after infection. The adult parasites in the Duodenum are counted by means of a compressor. The success of treatment in the dose group is made relative to the untreated control group.

Experiment [2] concerns hookworm and whipworm. To be noted: human medicine, high dosage on several days in succession; cited from earlier work.
In experiment [3] the test system is Heterakis spumosa. The experiment is described as follows: In vivo nematode test, Heterakis spumosa in the mouse. To be noted: oral. How it is done:
Heterakis spumosa in the Mouse
Mice are infected experimentally with nematodes of the species Heterakis spumosa. For infection, the mice are administered orally with Heterakis spumosa as 90 embryonate eggs.
After the prepatency period has expired, the suspended active substances are administered orally on day 46 after infection.
as §1
The mice are selected on day 54 after infection. The adult parasites are counted in the colon and caecum using a microscope. The success of treatment in the dose group is made relative to the untreated control group.

Experiment [4] deals with Ancylostoma caninum. The experiment is described as follows: In-vivo nematode test, Ancylostoma caninum in dogs. To be noted: oral. The method, then:
Ancylostoma caninum in dogs
Beagle puppies were experimentally infested with hookworms (Ancylostoma caninum). Amount of infestation material were 250 L3 larvae.
After the prepatent period, when mature worms are present within the gastrointestinal tract, the dogs were orally treated with the test compounds as pure active in gelatine capsules.
Determination of the Efficacy was Carried Out According to the Following Two Methods
1. Counts of worm eggs within the dogs faces before and after treatment.
2. Percent efficacy at a critical test calculated using the formula: [formula]

In experiment [5] the test system is hookworm Uncinaria stenocephala. As to conditions: 500 μg/kg, dogs; cited from earlier work.
Where [6] appears, read: ivermectin B1a/B1b 0.1 mg/kg alone.

In the case of “22,23-dihydroavermectins B1a /B1b [Ivermectin B1a /B1b]”, the Reduction rate in experiment [1] (setting [6]) is recorded as 0%; in experiment [3] (setting [6]), below 50%; in experiment [4] (ivermectin B1a/B1b 0,01 mg/kg alone) it was 100%; in experiment [4] (ivermectin B1a/B1b 0,001 mg/kg alone), 0%. In addition, the “efficacy in hookworm and whipworm infected patients” value in experiment [2] was “ineffective”.

`CC(C)C[C@H]1C(=O)O[C@H](Cc2ccccc2)C(=O)N(C)[C@@H](CC(C)C)C(=O)O[C@H](C)C(=O)N(C)[C@@H](CC(C)C)C(=O)O[C@H](Cc2ccccc2)C(=O)N(C)[C@@H](CC(C)C)C(=O)O[C@H](C)C(=O)N1C` [PF 1022 A]: the Reduction rate in experiment [1] (PF 1022 A 25.0 mg/kg alone), in experiment [1] (PF 1022 A 50.0 mg/kg alone), in experiment [3] (PF 1022 A 5.0 mg/kg alone), in experiment [3] (PF 1022 A 10.0 mg/kg alone), in experiment [3] (PF 1022 A 25.0 mg/kg alone) and in experiment [3] (PF 1022 A 50.0 mg/kg alone) was 0% throughout. The Reduction rate was 0% in experiment [4] (PF 1022 A 0,5 mg/kg alone) and 100% in experiment [4] (PF 1022 A 1,0 mg/kg alone).

On to Milbemycin, for which the “action against the hookworm Uncinaria stenocephala” value in experiment [5] is “distinct weakness in its action”.
